Experimental data reported in patent publication US20140348819A1, “Methods of Treating Cancer” (Dana-Farber Cancer Institute, Inc., priority 2011, published 2014).

Legend:
[1] = system: six V600E BRAF melanoma cell lines; assay: Screening of recombinant RTK ligands for ability to confer resistance to BRAFi (PLX4720) or MEKi (PD184352) (Table 4); assay type: cell-based, human; design: ability of recombinant RTK ligand to confer resistance / ability of recombinant RTK ligand to confer resistance (screening value): scale not given here
How it was run: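 Resistance to BRAFi (PLX4720) or MEKi (PD184352) was tested in six V600E BRAF melanoma lines given one of 22 recombinant RTK ligands. For a subset of RTKs, activation was checked by high-throughput tyrosine kinase phosphorylation profiling and western blot.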

[2] = system: pERK/pAKT; assay: High-throughput western analysis of pERK/pAKT re-activation by RTK ligands under BRAFi/MEKi; assay type: cell-based, human; settings: under BRAFi (PLX4720); after 1 hour of cytokine treatment; six V600E BRAF melanoma cell lines
Experimental: FIG. 23B is a western blot showing the activation of AKT (phosphorylated AKT, S473) after 1 hour and 24 hours after treatment with HGF, IGF-1 (IGF), and Insulin (INS) in the presence of BRAFi (PLX4720, 2 μM). FIG. 23C is a western blot showing the effect of HGF (25 ng/mL) on MAPK and PI3K/AKT pathway activation (pRAF1, pMEK, pERK, pAKT and pMET) in melanoma cell lines after 24 hours of treatment with 2 μM BRAFi (PLX4720) or 2 μM MEKi (PD184352).
To understand why, of all the RTKs tested, only HGF could induce such a unique primary resistance phenotype, a high-throughput western analysis was used to test the ability of all 22 RTK ligands to re-activate pERK/pAKT under BRAFi (PLX4720) treatment in six V600E BRAF melanoma cell lines. […] However, whereas the activation of both ERK and AKT by HGF under PLX4720 treatment was long lasting, the activation of either ERK or AKT by the above cytokines was only transient and thus could not confer resistance to the melanoma cell lines.

Substance: IGF-I
- ability of recombinant RTK ligand to confer resistance ([1]; A2058, PD184352 - 1 uM, ligand 0.4 ng/ml): 1.10
- ability of recombinant RTK ligand to confer resistance ([1]; A2058, PD184352 - 1 uM, ligand 1.6 ng/ml): 1.02
- ability of recombinant RTK ligand to confer resistance ([1]; A2058, PD184352 - 1 uM, ligand 6.25 ng/ml): 1.03
- ability of recombinant RTK ligand to confer resistance ([1]; A2058, PD184352 - 1 uM, ligand 25 ng/ml): 1.08
- ability of recombinant RTK ligand to confer resistance ([1]; A2058, PD184352 - 1 uM, ligand 100 ng/ml): 1.02
- ability of recombinant RTK ligand to confer resistance ([1]; A2058, PLX4720 - 2 uM, ligand 0.4 ng/ml): 1.05
- ability of recombinant RTK ligand to confer resistance ([1]; A2058, PLX4720 - 2 uM, ligand 1.6 ng/ml): 0.95
- ability of recombinant RTK ligand to confer resistance ([1]; A2058, PLX4720 - 2 uM, ligand 6.25 ng/ml): 0.97
- ability of recombinant RTK ligand to confer resistance ([1]; A2058, PLX4720 - 2 uM, ligand 25 ng/ml): 1.04
- ability of recombinant RTK ligand to confer resistance ([1]; A2058, PLX4720 - 2 uM, ligand 100 ng/ml): 0.99
- ability of recombinant RTK ligand to confer resistance ([1]; C32, PD184352 - 1 uM, ligand 0.4 ng/ml): 1.05
- ability of recombinant RTK ligand to confer resistance ([1]; C32, PD184352 - 1 uM, ligand 1.6 ng/ml): 1.04
- ability of recombinant RTK ligand to confer resistance ([1]; C32, PD184352 - 1 uM, ligand 6.25 ng/ml): 1.21
- ability of recombinant RTK ligand to confer resistance ([1]; C32, PD184352 - 1 uM, ligand 25 ng/ml): 1.16
- ability of recombinant RTK ligand to confer resistance ([1]; C32, PD184352 - 1 uM, ligand 100 ng/ml): 1.21
- ability of recombinant RTK ligand to confer resistance ([1]; C32, PLX4720 - 2 uM, ligand 0.4 ng/ml): 1.08
- ability of recombinant RTK ligand to confer resistance ([1]; C32, PLX4720 - 2 uM, ligand 1.6 ng/ml): 1.12
- ability of recombinant RTK ligand to confer resistance ([1]; C32, PLX4720 - 2 uM, ligand 6.25 ng/ml): 1.17
- ability of recombinant RTK ligand to confer resistance ([1]; C32, PLX4720 - 2 uM, ligand 25 ng/ml): 1.15
- ability of recombinant RTK ligand to confer resistance ([1]; C32, PLX4720 - 2 uM, ligand 100 ng/ml): 1.07
- ability of recombinant RTK ligand to confer resistance ([1]; Colo 829, PD184352 - 1 uM, ligand 0.4 ng/ml): 1.06
- ability of recombinant RTK ligand to confer resistance ([1]; Colo 829, PD184352 - 1 uM, ligand 1.6 ng/ml): 0.97
- ability of recombinant RTK ligand to confer resistance ([1]; Colo 829, PD184352 - 1 uM, ligand 6.25 ng/ml): 1.03
- ability of recombinant RTK ligand to confer resistance ([1]; Colo 829, PD184352 - 1 uM, ligand 25 ng/ml): 1.01
- ability of recombinant RTK ligand to confer resistance ([1]; Colo 829, PD184352 - 1 uM, ligand 100 ng/ml): 1.08
- ability of recombinant RTK ligand to confer resistance ([1]; Colo 829, PLX4720 - 2 uM, ligand 0.4 ng/ml): 1.00
- ability of recombinant RTK ligand to confer resistance ([1]; Colo 829, PLX4720 - 2 uM, ligand 1.6 ng/ml): 0.99
- ability of recombinant RTK ligand to confer resistance ([1]; Colo 829, PLX4720 - 2 uM, ligand 6.25 ng/ml): 1.06
- ability of recombinant RTK ligand to confer resistance ([1]; Colo 829, PLX4720 - 2 uM, ligand 25 ng/ml): 1.03
- ability of recombinant RTK ligand to confer resistance ([1]; Colo 829, PLX4720 - 2 uM, ligand 100 ng/ml): 1.07
- ability of recombinant RTK ligand to confer resistance ([1]; G-361, PD184352 - 1 uM, ligand 0.4 ng/ml): 1.06
- ability of recombinant RTK ligand to confer resistance ([1]; G-361, PD184352 - 1 uM, ligand 1.6 ng/ml): 1.00
- ability of recombinant RTK ligand to confer resistance ([1]; G-361, PD184352 - 1 uM, ligand 6.25 ng/ml): 1.17
- ability of recombinant RTK ligand to confer resistance ([1]; G-361, PD184352 - 1 uM, ligand 25 ng/ml): 0.99
- ability of recombinant RTK ligand to confer resistance ([1]; G-361, PD184352 - 1 uM, ligand 100 ng/ml): 0.95
- ability of recombinant RTK ligand to confer resistance ([1]; G-361, PLX4720 - 2 uM, ligand 0.4 ng/ml): 1.03
- ability of recombinant RTK ligand to confer resistance ([1]; G-361, PLX4720 - 2 uM, ligand 1.6 ng/ml): 1.05
- ability of recombinant RTK ligand to confer resistance ([1]; G-361, PLX4720 - 2 uM, ligand 6.25 ng/ml): 1.11
- ability of recombinant RTK ligand to confer resistance ([1]; G-361, PLX4720 - 2 uM, ligand 25 ng/ml): 0.99
- ability of recombinant RTK ligand to confer resistance ([1]; G-361, PLX4720 - 2 uM, ligand 100 ng/ml): 0.87
- ability of recombinant RTK ligand to confer resistance ([1]; SK-MEL-5, PD184352 - 1 uM, ligand 0.4 ng/ml): 1.01
- ability of recombinant RTK ligand to confer resistance ([1]; SK-MEL-5, PD184352 - 1 uM, ligand 1.6 ng/ml): 1.01
- ability of recombinant RTK ligand to confer resistance ([1]; SK-MEL-5, PD184352 - 1 uM, ligand 6.25 ng/ml): 1.08
- ability of recombinant RTK ligand to confer resistance ([1]; SK-MEL-5, PD184352 - 1 uM, ligand 25 ng/ml): 1.06
- ability of recombinant RTK ligand to confer resistance ([1]; SK-MEL-5, PD184352 - 1 uM, ligand 100 ng/ml): 1.29
- ability of recombinant RTK ligand to confer resistance ([1]; SK-MEL-5, PLX4720 - 2 uM, ligand 0.4 ng/ml): 1.01
- ability of recombinant RTK ligand to confer resistance ([1]; SK-MEL-5, PLX4720 - 2 uM, ligand 1.6 ng/ml): 1.03
- ability of recombinant RTK ligand to confer resistance ([1]; SK-MEL-5, PLX4720 - 2 uM, ligand 6.25 ng/ml): 1.19
- ability of recombinant RTK ligand to confer resistance ([1]; SK-MEL-5, PLX4720 - 2 uM, ligand 25 ng/ml): 1.25
- ability of recombinant RTK ligand to confer resistance ([1]; SK-MEL-5, PLX4720 - 2 uM, ligand 100 ng/ml): 1.12
- ability of recombinant RTK ligand to confer resistance ([1]; SK-MEL-28, PD184352 - 1 uM, ligand 0.4 ng/ml): 1.10
- ability of recombinant RTK ligand to confer resistance ([1]; SK-MEL-28, PD184352 - 1 uM, ligand 1.6 ng/ml): 1.06
- ability of recombinant RTK ligand to confer resistance ([1]; SK-MEL-28, PD184352 - 1 uM, ligand 6.25 ng/ml): 0.98
- ability of recombinant RTK ligand to confer resistance ([1]; SK-MEL-28, PD184352 - 1 uM, ligand 25 ng/ml): 1.06
- ability of recombinant RTK ligand to confer resistance ([1]; SK-MEL-28, PD184352 - 1 uM, ligand 100 ng/ml): 1.12
- ability of recombinant RTK ligand to confer resistance ([1]; SK-MEL-28, PLX4720 - 2 uM, ligand 0.4 ng/ml): 1.24
- ability of recombinant RTK ligand to confer resistance ([1]; SK-MEL-28, PLX4720 - 2 uM, ligand 1.6 ng/ml): 1.08
- ability of recombinant RTK ligand to confer resistance ([1]; SK-MEL-28, PLX4720 - 2 uM, ligand 6.25 ng/ml): 1.09
- ability of recombinant RTK ligand to confer resistance ([1]; SK-MEL-28, PLX4720 - 2 uM, ligand 25 ng/ml): 1.02
- ability of recombinant RTK ligand to confer resistance ([1]; SK-MEL-28, PLX4720 - 2 uM, ligand 100 ng/ml): 1.01

Substance: FGF-1: RTK ligand (FGFR), cytokine tested
- re-activation of pERK/pAKT [2]: reactivate only ERK
